Test [1] has as its system rat pituitary cell cultures. The experiment in a line: In vitro bioassay in rat pituitary cell cultures with a specific rat growth hormone radioimmunoassay. In kind it is cell-based. Particulars: relative potency; rat pituitary in vitro bioassay in which the potency of GRF(1-44)-NH2 standard is 1.00; enzymatically prepared product of Example 1. As to the method: All amino acid derivatives were of the L-configuration and purchased from Bachem (Torrance, Calif.). Porcine trypsin (Sigma, Type IX) was assayed against N^α benzoyl-L-arginine ethyl ester (BAEE) and the specific activity determined to be 1.85×10^4 U/mg. It was treated with N-tosyl-L-phenylalaninechloromethylketone (TPCK) [G. Schoellman and E. Shaw, Biochemistry, 2, 252 ([…])] and dialyzed extensively against distilled water and lyophilized to give 2.02×10^4 U/mg. N,N-Dimethylacetamide (Kodak, Spectro Grade) and 1,4-butanediol (Sigma, Gold Label) were dried over 3A sieves. Tryptic digests were carried out in solutions of the peptide (1 mg/mL) and bovine trypsin (Millipore, 0.1 mg/mL) in 0.5M NH4 HCO3 (pH 8.0) for 20 hours. All pH measurements were made with a glass electrode. In vitro bioassays were done in rat pituitary cell cultures and using a specific rat growth hormone radioimmunoassay as previously described (P. Brazeau et al., Proc. Natl. Acad. Sci. USA, 79, 7909 (1982). GRF(1-43)-OH was prepared by solid-phase synthesis as follows:
The final yield of GRF(1-44)-NH2 was 1.95 mg ([…], 37%). FAB-MS: (M+H)^+ Calc: 5040.7, Found: 5040.5. Amino Acid Anal (6M HCl; 110° C., 72 h.): Asp, 4.12(4); Thr, 0.97(1); Ser, 3.65(4); Glu, 7.54(7); Gly, 2.99(3); Ala, 5.27(5); Val, 1.04(1); Met, 0.92(1); Ile, 2.01(2); Leu, 5.13(5); Tyr, 1.87(2); Phe, 0.91(1); Lys, 2.03(2); Arg, 5.54(6). […]

For test [2] the following is noted: qualitative statement in background; comparison of the 44, 40 and 37 amino acid forms and the free acid; cited from earlier work.

Ends that are not written are not given here.

With GRF(1-44)-NH2, in test [1], the “In vitro biological potency” value is given as 0.92±0.22. Also, the “Level of activity / potency among GRF forms” value in test [2] is “full intrinsic activity and highest potency”.
Turning to “GRF(1-40)-OH (YADAIFTNSYRKVLGQLSARKLLQDIMSRQQGESNQERGA-OH; UniProt P01286 32-71, looked up, fragment) [free acid form of Growth Hormone Releasing Factor mentioned in the background, reference compound]”, the “Level of activity / potency among GRF forms” value in test [2] is recorded as “substantially lower level of activity”.

The values above are taken from patent US5563044A, “Process for the enzymatic preparation of GRF(1-44)NH2” (Hoffmann-La Roche Inc., priority 1995, dated 1996).
